Data on 24 compounds can be found in patent US20260116922A1 (UNIVERSITAET WIEN, priority 2021, published 2026).

The nature of series [1]: Stability in simulated intestinal fluid (SIF). The following applies: relative stability compared with SIF stability of oxytocin (8±1 min); SIF pH 6.8, pancreatin, 37° C.
Description: (§1) Simulated intestinal fluid (SIF). […] The solution was centrifuged, and syringe filtered before use.
(§2) Stability assay procedure. Stock solutions (1 mM) of test peptides were prepared in ddH2O. […] The peptide stock solution (30 μL) was added to the fluid, the mixture was vortexed and incubated at 37° C. […] All samples were centrifuged (5 min, 16,000×g) and stored at 4° C. before analysis.
(§3) RP-HPLC-UV(-MS) analysis of stability samples. […] 30 μL sample were injected on a Kromasil Classic C1S HPLC column (2.1×150 mm, 100 Å, 5 μm) equipped with a guard column (C18, 100 Å, 5 μm, 2.1 mm). […] Solvent A: 0.1% TFA in ddH2O. Solvent B: 0.08% TFA in ACN.
(§4) Data analysis. […] Peak areas (mAU×min) at individual time points were normalized to the mean value of time point zero (y(t0)=100%). To calculate compound half-lives (t1/2), a one-phase exponential decay function was fitted to normalized data points via a nonlinear regression in GraphPad Prism (Version 9) (GraphPad Software Inc., La Jolla, California, USA). The following constraints were applied: (i) y(t0) constant equal to 100, (ii) plateau constant equal to 0.
A further series has as its target T1, Human OTR (Homo sapiens, UniProt P30559).
T1 construct: expressed in transfected cells; host or cells: HEK293 (stably transfected, G418 selection)
T1 sequence (P30559 1-389): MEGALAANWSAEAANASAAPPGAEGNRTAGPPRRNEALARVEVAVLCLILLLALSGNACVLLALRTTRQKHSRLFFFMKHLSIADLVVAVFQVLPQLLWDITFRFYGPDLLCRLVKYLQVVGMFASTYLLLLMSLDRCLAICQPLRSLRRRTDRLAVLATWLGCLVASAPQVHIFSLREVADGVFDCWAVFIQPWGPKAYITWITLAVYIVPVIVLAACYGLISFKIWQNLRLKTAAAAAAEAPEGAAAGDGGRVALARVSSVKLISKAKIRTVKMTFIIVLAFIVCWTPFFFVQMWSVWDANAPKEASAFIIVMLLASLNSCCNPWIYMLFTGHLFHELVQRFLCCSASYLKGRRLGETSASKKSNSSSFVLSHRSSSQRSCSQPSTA
Description: IP-1 accumulation in HEK293 cells stably expressing hOTR-GFP. Format: cell-based. As to conditions: 1 h stimulation at 37° C., normalized to maximum OT response.

A short description of series [2]: in vitro. The following applies: simulated gi fluid.
A short description of series [3]: in vitro. As to conditions: simulated gi fluid, pH 6.8.
Description: as §1, §2, §3, §4

Each structure is given as a SMILES string. *1 amine or outer side, *2 acyl side, *3 side chain or, on linkers, in order; H or OH if unused. Where a SMILES comes first, the peptide text is derived from it. Bridges are numbered along the chain shown (N, C = ends). [ ]: non-standard residue; d: D form. The star is where a group is joined. N(4-F-Bzl)Gly = O=C(O)CNCc1ccc(F)cc1; αMeY = C[C@](N)(Cc1ccc(O)cc1)C(=O)O; Gly(cPent) = N[C@H](C(=O)O)C1CCCC1; αMeL = CC(C)C[C@](C)(N)C(=O)O; αMeV = CC(C)[C@](C)(N)C(=O)O; Thz = O=C(O)[C@@H]1CSCN1; X1 = O=C(CCC[*:2])[*:1]; Dap = NC[C@H](N)C(=O)O; Piv = CC(C)(C)C(=O)* Some results are limits rather than exact numbers.

Description for Human OTR: Cell culture for functional assays.
Measurement of inositol phosphate one (IP-1) accumulation. HEK293 cells were cultured in DMEM supplemented with 10% FBS and penicillin/streptomycin (100 U mL^−1) at 37° C. and 5% CO2. Cells were transferred into white opaque 384-well plates (CellStar®, Greiner, Austria) at ˜10,000 cells per well 48 h prior to measurement. Quantitative measurements of receptor-mediated IP-1 were performed by competitive immunoassay utilizing the IP-One assay kit [9]. HEK293 cells were assayed as per the manufacturer's protocol. Briefly, at the time of analysis, the culture media was removed and replaced with IP-1 stimulation buffer. Cells were allowed to equilibrate in the stimulation buffer at 37° C. for 15 min, followed by addition of peptide ligands (to final concentrations of 1 μM-10 μM) and subsequent stimulation for 1 h at 37° C. The stimulation was terminated by lysis and the simultaneous addition of homogenous time-resolved fluorescence resonance energy transfer reagents. The lysates were incubated for 1 h at 25° C. Fluorescence emission measurements at 620 nm and 665 nm were performed using a Spark Multimode plate reader (Tecan, Switzerland) at an excitation wavelength of 340 nm. Results were analyzed as a ratio of fluorescence intensities of 665 nm to 620 nm. […]

As for `CC[C@H](C)[C@@H]1NC(=O)[C@H](Cc2ccc(O)cc2)NC(=O)[C@@H](N)CSSC[C@@H](C(=O)N2CCC[C@H]2C(=O)N[C@@H](CCCCNC(C)=O)C(=O)NCC(N)=O)NC(=O)[C@H](CC(N)=O)NC(=O)[C@H](CCC(N)=O)NC1=O` [Compound 1], the “SIF stability [fold OT]” value in series [1] is 10-100 fold OT. The same measure, in the same setting: under `CC[C@H](C)[C@@H]1NC(=O)[C@H](Cc2ccc(O)cc2)NC(=O)[C@@H](N)CSSC[C@@H](C(=O)N2CCC[C@H]2C(=O)N[C@@H](CNC(C)=O)C(=O)NCC(N)=O)NC(=O)[C@H](CC(N)=O)NC(=O)[C@H](CCC(N)=O)NC1=O` [Compound 2] stands 10-100 fold OT; under `CC[C@H](C)[C@@H]1NC(=O)[C@H](Cc2ccc(O)cc2)NC(=O)[C@@H](N)CSSC[C@@H](C(=O)N2CCC[C@H]2C(=O)N[C@@](C)(CC(C)C)C(=O)NCC(N)=O)NC(=O)[C@H](CC(N)=O)NC(=O)[C@H](CCC(N)=O)NC1=O` [Compound 3], 10-100 fold OT. As to `CC[C@H](C)[C@@H]1NC(=O)[C@H](Cc2ccc(O)cc2)NC(=O)[C@@H](N)CSSC[C@@H](C(=O)N2CCC[C@H]2C(=O)N[C@H](CC(=O)NCC(N)=O)CC(C)C)NC(=O)[C@H](CC(N)=O)NC(=O)[C@H](CCC(N)=O)NC1=O` [Compound 4], in series [1], the “SIF stability [fold OT]” value is on record as 10-100 fold OT.

For `CC[C@H](C)[C@@H]1NC(=O)[C@H](Cc2ccc(OC)cc2)NC(=O)CCCSC[C@@H](C(=O)N2CCC[C@H]2C(=O)N[C@@H](CCCCNC(C)=O)C(=O)NCC(N)=O)NC(=O)[C@H](CC(N)=O)NC(=O)[C@H](CCC(N)=O)NC1=O` [Compound 5] (Y(Me)IQNCPK(Ac)G-NH2; linker N-5 via X1), the “SIF stability [fold OT]” value in series [1] is recorded as over 100 fold OT.

On to `CC[C@H](C)[C@@H]1NC(=O)[C@H](Cc2ccc(OC)cc2)NC(=O)CCCSC[C@@H](C(=O)N2CCC[C@H]2C(=O)N[C@@H](CNC(C)=O)C(=O)NCC(N)=O)NC(=O)[C@H](CC(N)=O)NC(=O)[C@H](CCC(N)=O)NC1=O` [Compound 6] (Y(Me)IQNCP[Dap](Ac)G-NH2; linker N-5 via X1), for which the “SIF stability [fold OT]” value in series [1] is over 100 fold OT. The same measure, in the same setting: next, `CC[C@H](C)[C@@H]1NC(=O)[C@H](Cc2ccc(OC)cc2)NC(=O)CCCSC[C@@H](C(=O)N2CCC[C@H]2C(=O)N[C@@](C)(CC(C)C)C(=O)NCC(N)=O)NC(=O)[C@H](CC(N)=O)NC(=O)[C@H](CCC(N)=O)NC1=O` [Compound 7] (Y(Me)IQNCP[αMeL]G-NH2; linker N-5 via X1): over 100 fold OT. For orientation: EC50 means the concentration at which the effect is half-maximal. On to `CC[C@H](C)[C@@H]1NC(=O)[C@H](Cc2ccc(OC)cc2)NC(=O)CCCSC[C@@H](C(=O)N(CC(=O)N[C@@H](CNC(C)=O)C(=O)NCC(N)=O)Cc2ccc(F)cc2)NC(=O)[C@H](CC(N)=O)NC(=O)[C@H](CCC(N)=O)NC1=O` [Compound 8] (Y(Me)IQNC[N(4-F-Bzl)Gly][Dap](Ac)G-NH2; linker N-5 via X1), for which the EC50 on Human OTR was over 500 nM. In addition, in series [1], the “SIF stability [fold OT]” value is 10-100 fold OT. As to `CC[C@H](C)[C@@H]1NC(=O)[C@](C)(Cc2ccc(O)cc2)NC(=O)CCCSC[C@@H](C(=O)N2CCC[C@H]2C(=O)N[C@@H](CNC(C)=O)C(=O)NCC(N)=O)NC(=O)[C@H](CC(N)=O)NC(=O)[C@H](CCC(N)=O)NC1=O` [Compound 9] ([αMeY]IQNCP[Dap](Ac)G-NH2; linker N-5 via X1), in series [1], the “SIF stability [fold OT]” value was over 100 fold OT.

Regarding `CC[C@H](C)[C@@H]1NC(=O)[C@](C)(Cc2ccccc2)NC(=O)CCCSC[C@@H](C(=O)N2CCC[C@H]2C(=O)N[C@@H](CNC(C)=O)C(=O)NCC(N)=O)NC(=O)[C@H](CC(N)=O)NC(=O)[C@H](CCC(N)=O)NC1=O` [Compound 10], the “SIF stability [fold OT]” value in series [1] is over 100 fold OT. On the same count and under the same terms, next, `CC[C@H](C)[C@@H]1NC(=O)[C@H](Cc2ccc(C)cc2)NC(=O)CCCSC[C@@H](C(=O)N2CCC[C@H]2C(=O)N[C@@H](CNC(C)=O)C(=O)NCC(N)=O)NC(=O)[C@H](CC(N)=O)NC(=O)[C@H](CCC(N)=O)NC1=O` [Compound 11]: 10-100 fold OT; `CC[C@H](C)[C@@H]1NC(=O)[C@H](Cc2ccc(C(F)(F)F)cc2)NC(=O)CCCSC[C@@H](C(=O)N2CCC[C@H]2C(=O)N[C@@H](CNC(C)=O)C(=O)NCC(N)=O)NC(=O)[C@H](CC(N)=O)NC(=O)[C@H](CCC(N)=O)NC1=O` [Compound 12]: over 100 fold OT. With `CC[C@H](C)[C@@H]1NC(=O)[C@H](Cc2ccc(OC)cc2)NC(=O)CCCSC[C@@H](C(=O)N2CCC[C@H]2C(=O)N[C@@H](CNC(=O)C(C)(C)C)C(=O)NCC(N)=O)NC(=O)[C@H](CC(N)=O)NC(=O)[C@H](CCC(N)=O)NC1=O` [Compound 13] (Y(Me)IQNCP[Dap](Piv)G-NH2; linker N-5 via X1), in series [1], the “SIF stability [fold OT]” value is given as over 100 fold OT. Same read-out and setting: under `COc1ccc(C[C@@H]2NC(=O)CCCSC[C@@H](C(=O)N3CCC[C@H]3C(=O)N[C@@H](CNC(C)=O)C(=O)NCC(N)=O)NC(=O)[C@H](CC(N)=O)NC(=O)[C@H](CCC(N)=O)NC(=O)[C@H](C3CCCC3)NC2=O)cc1` [Compound 14] (Y(Me)[Gly(cPent)]QNCP[Dap](Ac)G-NH2; linker N-5 via X1) stands over 100 fold OT; under `CC(=O)NC[C@H](NC(=O)[C@@H]1CCCN1C(=O)[C@@H]1CSCCCC(=O)N[C@@H](Cc2ccc(O)cc2)C(=O)N[C@@](C)(C(C)C)C(=O)N[C@@H](CCC(N)=O)C(=O)N[C@@H](CC(N)=O)C(=O)N1)C(=O)NCC(N)=O` [Compound 15] (Y[αMeV]QNCP[Dap](Ac)G-NH2; linker N-5 via X1), over 100 fold OT; under `CC[C@H](C)[C@@H]1NC(=O)[C@](C)(Cc2ccc(O)cc2)NC(=O)CCCSC[C@@H](C(=O)N2CCC[C@H]2C(=O)N[C@@H](CCCCNC(C)=O)C(=O)NCC(N)=O)NC(=O)[C@H](CC(N)=O)NC(=O)[C@H](CCC(N)=O)NC1=O` [Compound 16] ([αMeY]IQNCPK(Ac)G-NH2; linker N-5 via X1), over 100 fold OT. In the case of `CC[C@H](C)[C@@H]1NC(=O)[C@](C)(Cc2ccc(O)cc2)NC(=O)CCCSC[C@@H](C(=O)N2CSC[C@H]2C(=O)N[C@@H](CCCCNC(C)=O)C(=O)NCC(N)=O)NC(=O)[C@H](CC(N)=O)NC(=O)[C@H](CCC(N)=O)NC1=O` [Compound 17] ([αMeY]IQNC[Thz]K(Ac)G-NH2; linker N-5 via X1), the “SIF stability [fold OT]” value in series [1] is on record as over 100 fold OT. Still for that read-out and setting: under `CC(=O)NCCCC[C@H](NC(=O)[C@@H]1CSCN1C(=O)[C@@H]1CSCCCC(=O)N[C@@](C)(Cc2ccc(O)cc2)C(=O)N[C@@H](C2CCCC2)C(=O)N[C@@H](CCC(N)=O)C(=O)N[C@@H](CC(N)=O)C(=O)N1)C(=O)NCC(N)=O` [Compound 18] ([αMeY][Gly(cPent)]QNC[Thz]K(Ac)G-NH2; linker N-5 via X1) stands over 100 fold OT; under `CC(=O)NCCCC[C@H](NC(=O)[C@@H]1CCCN1C(=O)[C@@H]1CSCCCC(=O)N[C@@H](Cc2ccc(O)cc2)C(=O)N[C@@](C)(C(C)C)C(=O)N[C@@H](CCC(N)=O)C(=O)N[C@@H](CC(N)=O)C(=O)N1)C(=O)NCC(N)=O` [Compound 19] (Y[αMeV]QNCPK(Ac)G-NH2; linker N-5 via X1), over 100 fold OT; under `CC(=O)NCCCC[C@H](NC(=O)[C@@H]1CSCN1C(=O)[C@@H]1CSCCCC(=O)N[C@@H](Cc2ccc(O)cc2)C(=O)N[C@@](C)(C(C)C)C(=O)N[C@@H](CCC(N)=O)C(=O)N[C@@H](CC(N)=O)C(=O)N1)C(=O)NCC(N)=O` [Compound 20] (Y[αMeV]QNC[Thz]K(Ac)G-NH2; linker N-5 via X1), over 100 fold OT. Consider `COc1ccc(C[C@@H]2NC(=O)CCCSC[C@@H](C(=O)N3CCC[C@H]3C(=O)N[C@@H](CCCCNC(C)=O)C(=O)NCC(N)=O)NC(=O)[C@H](CC(N)=O)NC(=O)[C@H](CCC(N)=O)NC(=O)[C@H](C3CCCC3)NC2=O)cc1` [Compound 21] (Y(Me)[Gly(cPent)]QNCPK(Ac)G-NH2; linker N-5 via X1), for which the “SIF stability [fold OT]” value in series [1] is recorded as over 100 fold OT. On the same count and under the same terms, next, `CC[C@H](C)[C@@H]1NC(=O)[C@H](Cc2ccc(OC)cc2)NC(=O)CCCSC[C@@H](C(=O)N2CSC[C@H]2C(=O)N[C@@H](CCCCNC(C)=O)C(=O)NCC(N)=O)NC(=O)[C@H](CC(N)=O)NC(=O)[C@H](CCC(N)=O)NC1=O` [Compound 22] (Y(Me)IQNC[Thz]K(Ac)G-NH2; linker N-5 via X1): over 100 fold OT. On the same count and under the same terms, under `COc1ccc(C[C@@H]2NC(=O)CCCSC[C@@H](C(=O)N3CSC[C@H]3C(=O)N[C@@H](CCCCNC(C)=O)C(=O)NCC(N)=O)NC(=O)[C@H](CC(N)=O)NC(=O)[C@H](CCC(N)=O)NC(=O)[C@H](C3CCCC3)NC2=O)cc1` [Compound 23] (Y(Me)[Gly(cPent)]QNC[Thz]K(Ac)G-NH2; linker N-5 via X1) stands over 100 fold OT. The half-life is the time needed for the level to fall by half in the phase considered. A higher half-life goes with slow loss. On to `CC[C@H](C)[C@@H]1NC(=O)[C@H](Cc2ccc(O)cc2)NC(=O)[C@@H](N)CSSC[C@@H](C(=O)N2CCC[C@H]2C(=O)N[C@@H](CC(C)C)C(=O)NCC(N)=O)NC(=O)[C@H](CC(N)=O)NC(=O)[C@H](CCC(N)=O)NC1=O` [OT, oxytocin], for which the half-life in the series “in vitro [2]” is over 1440 min. In the series “in vitro [3]”, this compound showed a half-life at 50 µM of 8 ± 1 min.
